# According to US10758517B2, “mPGES-1 inhibitor for the treatment of osteoarthritis pain” (Glenmark Pharmaceuticals S.A., priority 2017, dated 2020):
# Like-named read-outs stand apart in the source and are kept apart here.
# System: LPS-induced PGE2 release
# Assay: Ex vivo LPS-induced PGE2 release in whole blood, multiple oral doses for 28 days (Example 2, Part 1)
# Parameters: species or system human
# Settings: for ETmax, median difference from placebo / Eavg0-24 h, Difference in LS means (Compound I − placebo) / Epeak, Difference in LS means (Compound I − placebo) / EAUC0-24 h, Difference in LS means (Compound I − placebo) / EAUC0-24 h, LS means / ETmax (time to reach maximum effect), Median / Emax at 25 mg / Emax at 75 mg / Emax at 130 mg / inhibition at 25 mg / inhibition at 75 mg / inhibition at 130 mg: healthy subjects; for Emax at 25 mg / Emax at 75 mg / Emax at 130 mg / inhibition at 25 mg / inhibition at 75 mg / inhibition at 130 mg: Homo sapiens, po; for Emax at 25 mg / Emax at 75 mg / Emax at 130 mg: read-out: Epeak (maximum effect), LS means; for inhibition at 25 mg / inhibition at 75 mg / inhibition at 130 mg: read-out: Eavg0-24 h (average PGE2 inhibition over 24 hours), LS means
# Protocol: Part 1 consisted of a MAD, double-blind, sequential-group study in healthy subjects. Twenty-four adult male and female subjects were recruited into 3 cohorts. Subjects were enrolled in a sequential manner in cohorts of 8, each randomized in a ratio of 6:2, to receive Compound I or placebo, respectively, for a duration of 28 days. Three dose levels of Compound I (25, 75 and 130 mg) were studied in Cohorts A, B and C, respectively. For each cohort in Part 1, the planned Compound I, qd dosing occurred in the fasted state in the morning on Days 1 to 28, both inclusive. Subjects in each cohort started dosing on the same day, with no less than 5 minutes dose interval between subjects on Day 1.
# Concentrations below the limit of quantification were treated as ½ the lower limit of quantification for subsequent calculations.
# Time points where unstimulated PGE2 levels were 3 times greater than the mean of unstimulated PGE2 and greater than or equal to half of the baseline for a particular subject were not included in the calculation of these parameters.
# Baseline is the mean of Day −1 and pre-dose LPS stimulated PGE2.
# Abbreviations: CI=confidence interval; EAUC0-24h=area under the effect-time curve from time zero to 24 hours postdose; Eavg0-24h=the average PGE2 inhibition over 24 hours; Epeak=maximum effect; ETmax=time to reach maximum effect; LS=least squares; N=number of subjects; PGE2=prostaglandin E2; qd=once daily.
# ^a Median, median difference from placebo and approximate 95% CI.
smiles,measurement,setting,value
"CC(C)(C)C(=O)NCc1ccc(Cl)c(-c2nn(-c3ccc(C(F)(F)F)cc3)c(=O)[nH]2)c1 [Compound I, N-(4-chloro-3-(5-oxo-1-(4-(trifluoromethyl)phenyl)-4,5-dihydro-1H-1,2,4-triazol-3-yl)benzyl)pivalamide]","ETmax, median difference from placebo","Day 10, 130 mg qd",-6.03 h
same,"Eavg0-24 h, Difference in LS means (Compound I − placebo)","Day 10, 130 mg qd",58.4%
same,"Epeak, Difference in LS means (Compound I − placebo)","Day 10, 130 mg qd",40.9%
same,"EAUC0-24 h, Difference in LS means (Compound I − placebo)","Day 28, 25 mg qd",1281 % · h
same,"EAUC0-24 h, LS means","Day 28, 25 mg qd",1621 % · h
same,"ETmax (time to reach maximum effect), Median","Day 28, 25 mg qd",2.00 h
same,"ETmax, median difference from placebo","Day 28, 25 mg qd",-6.00 h
same,"Eavg0-24 h, Difference in LS means (Compound I − placebo)","Day 28, 25 mg qd",53.4%
same,"Epeak, Difference in LS means (Compound I − placebo)","Day 28, 25 mg qd",18.0%
same,"EAUC0-24 h, Difference in LS means (Compound I − placebo)","Day 28, 75 mg qd",1356 % · h
same,"EAUC0-24 h, LS means","Day 28, 75 mg qd",1696 % · h
same,"ETmax (time to reach maximum effect), Median","Day 28, 75 mg qd",10.0 h
same,"ETmax, median difference from placebo","Day 28, 75 mg qd",0.0333 h
same,"Eavg0-24 h, Difference in LS means (Compound I − placebo)","Day 28, 75 mg qd",56.4%
same,"Epeak, Difference in LS means (Compound I − placebo)","Day 28, 75 mg qd",21.2%
same,"EAUC0-24 h, Difference in LS means (Compound I − placebo)","Day 28, 130 mg qd",1192 % · h
same,"EAUC0-24 h, LS means","Day 28, 130 mg qd",1531 % · h
same,"ETmax (time to reach maximum effect), Median","Day 28, 130 mg qd",12.0 h
same,"ETmax, median difference from placebo","Day 28, 130 mg qd",0.177 h
same,"Eavg0-24 h, Difference in LS means (Compound I − placebo)","Day 28, 130 mg qd",49.6%
same,"Epeak, Difference in LS means (Compound I − placebo)","Day 28, 130 mg qd",13.9%
same,Emax at 25 mg,"24 h, Day 1, 25 mg qd",90.4%
same,Emax at 75 mg,"24 h, Day 1, 75 mg qd",82.1%
same,Emax at 130 mg,"24 h, Day 1, 130 mg qd",77.8%
same,Emax at 25 mg,"240 h, Day 10, 25 mg qd",83.7%
same,Emax at 75 mg,"240 h, Day 10, 75 mg qd",81.4%
same,Emax at 130 mg,"240 h, Day 10, 130 mg qd",79.6%
same,Emax at 25 mg,"672 h, Day 28, 25 mg qd",84.2%
same,Emax at 75 mg,"672 h, Day 28, 75 mg qd",87.4%
same,Emax at 130 mg,"672 h, Day 28, 130 mg qd",80.1%
same,inhibition at 25 mg,"Day 1, 25 mg qd",65.7%
same,inhibition at 75 mg,"Day 1, 75 mg qd",65.4%
same,inhibition at 130 mg,"Day 1, 130 mg qd",57.6%
same,inhibition at 25 mg,"Day 10, 25 mg qd",60.6%
same,inhibition at 75 mg,"Day 10, 75 mg qd",64.7%
same,inhibition at 130 mg,"Day 10, 130 mg qd",57.6%
same,inhibition at 25 mg,"Day 28, 25 mg qd",67.5%
same,inhibition at 75 mg,"Day 28, 75 mg qd",70.6%
same,inhibition at 130 mg,"Day 28, 130 mg qd",63.8%
same,inhibition of ex-vivo LPS-induced PGE2 release (in words),"multiple oral doses 25 mg to 130 mg qd, Days 1, 10 and 28",marked drug-related inhibition
same,time by which maximal inhibition was reached,"post-dose on Day 1, each dose level (first sampling occasion)",≤ 30 min
